Activity calls are given as the source filed them.
What was measured:
Format in all cases: functional, organism-based
Details in all cases: time 16-20 hrs
Escherichia coli = assay: Antibacterial activity against Escherichia coli ATCC 35218 assessed as reduction in bacterial growth measured after 16 to 20 hrs by agar disk diffusion method
Enterococcus faecalis = assay: Antibacterial activity against Enterococcus faecalis DSM 2570 assessed as reduction in bacterial growth measured after 16 to 20 hrs by agar disk diffusion method
Klebsiella pneumoniae = assay: Antibacterial activity against Klebsiella pneumoniae DSM 26371 assessed as reduction in bacterial growth measured after 16 to 20 hrs by agar disk diffusion method
Bacillus subtilis = assay: Antibacterial activity against Bacillus subtilis NCLB3610 assessed as reduction in bacterial growth measured after 16 to 20 hrs by agar disk diffusion method
Niallia circulans = assay: Antibacterial activity against Bacillus circulans NRRL B-380 assessed as reduction in bacterial growth measured after 16 to 20 hrs by agar disk diffusion method
Staphylococcus aureus = assay: Antibacterial activity against Staphylococcus aureus ATCC29213 assessed as reduction in bacterial growth measured after 16 to 20 hrs by agar disk diffusion method
Staphylococcus delphini = assay: Antibacterial activity against Staphylococcus delphini DSM 20771 assessed as reduction in bacterial growth measured after 16 to 20 hrs by agar disk diffusion method
Pseudomonas aeruginosa = assay: Antibacterial activity against Pseudomonas aeruginosa ATCC 27853 assessed as reduction in bacterial growth measured after 16 to 20 hrs by agar disk diffusion method

Measured: Activity

CC(C)C[C@@H]1NC(=O)[C@@H]2C[C@]3(c4nc5c(=O)[nH]c(N)nc5[nH]4)c4ccccc4N[C@@H]3N2C1=O
inactive: all assays above

CC(C)C[C@@H]1NC(=O)[C@H]([C@@H](O)c2c[nH]c3ccccc23)NC1=O
inactive: all assays above

Reference: ChEMBL document CHEMBL6078694, “Divergent Metabolism of Cyclo-l-Trp-l-Leu in Streptomyces albofaciens by Hydroxylation and Nucleobase Transfer with Two Cytochrome P450 Enzymes” (J Nat Prod, 2024)
